Test system: human ankle cartilage explants treated with IL-1β
Test: IL-1β cytokine challenge model, sGAG biosynthesis rate in human ankle cartilage explants
Format: cell-based
Conditions: for rescue of the biosynthesis loss caused by human IL-1β: days 6-8
Experimental: Cartilage was harvested from the ankles of a donor (Collins Grade 1) and a donor (Collins Grade 1). Cartilage explants were equilibrated in culture media for 2 days after harvest. […] These were cut down to 1 mm thickness and allowed to equilibrate for a further 2 days before experiments were set up. Human IL-1β was used to induce osteoarthritis-like changes in cartilage. Experiments were set up to identify IL-1β doses at which 40 nM of free IGF-1 can rescue the IL-1β induced biosynthesis loss in cartilage. A dose response experiment in which single doses of (+9GFP)-(GGGGS)4-(IGF-1) (SEQ ID NO: 7) and (+9GFP)-(EAAAK)3-(IGF-1) (SEQ ID NO: 8) were added along with 100 pg/ml human IL-1β was also set up.
Experimental groups (N=8 to 10 cartilage explants in each group): Untreated control (Ctrl in FIG. 6A and FIG. 6B), 10 pg/mL human IL-1β (10 pg/ml IL-1b in FIG. 6A and FIG. 6B), 10 pg/mL human IL-1β+40 nM IGF-1 (10 pg/ml IL-1b+40 nM IGF-1 in FIG. 6A and FIG. 6B), 100 pg/mL human IL-1β (100 pg/ml IL-1b in FIG. 6A and FIG. 6B), 100 pg/mL human IL-1β+40 nM IGF-1 (100 pg/ml IL-1b+40 nM IGF-1 in FIG. 6A and FIG. 6B), 500 pg/mL human IL-1β (500 pg/ml IL-1b in FIG. 6A and […]), 500 pg/mL human IL-1β+40 nM IGF-1 (500 pg/ml IL-1b+40 nM IGF-1 in FIG. 6A and FIG. 6B), 1000 pg/mL human IL-1β (1 ng/ml IL-1b in FIG. 6A and FIG. 6B), 1000 pg/mL human IL-1β+40 nM IGF-1 (1 ng/ml IL-1b+40 nM IGF-1 in FIG. 6A and FIG. 6B). Media changes were performed every 2 days and the experiment was terminated after 8 days.
Chondrocyte biosynthesis rate (primarily aggrecan synthesis) was measured between days 6 and 8 of the experiment using a 35S-sulfate radiolabel. Statistics: 1-way ANOVA with post-hoc Tukey's HSD test.
This experiment was set up with cartilage explants from the donor ankle. Experimental groups (N=8 to 10 cartilage explants in each group): Untreated control (Ctrl in FIG. 6C), Continuous human IL-1β control (100 pg/ml dose added with every media change) (IL-1b in FIG. 6C), Continuous human IL-1β+continuous free IGF-1 control (100 pg/ml human IL-1β and 40 nM free IGF-1 dose added with every media change) (IL-1b+IGF1 FIG. 6C), Continuous human IL-1β+(+9GFP)-(GGGGS)4-(IGF-1) (SEQ ID NO: 7) 500 nM single dose (100 pg/ml human IL-1β added with every media change; Single 500 nM fusion protein dose added on Day 0) (IL-1b+0.5 μM Flex-1 in FIG. 6C), Continuous human IL-1β+(+9GFP)-(GGGGS)4-(IGF-1) (SEQ ID NO: 7) 1 μM single dose (100 pg/ml human IL-1β added with every media change; Single 1 μM fusion protein dose added on Day 0) (IL-1b+1 μM Flex-1 in FIG. 6C), Continuous human IL-1β+(+9GFP)-(EAAAK)3-(IGF-1) (SEQ ID NO: 8) 500 nM single dose (100 pg/ml human IL-1β added with every media change; Single 500 nM fusion protein dose added on Day 0), Continuous human IL-1β+(+9GFP)-(EAAAK)3-(IGF-1) (SEQ ID NO: 8) 1 μM single dose (100 pg/ml human IL-1β added with every media change; Single 1 μM fusion protein dose added on Day 0) (IL-1b+1 μM Rig-1 in FIG. 6C).
Preliminary dose response experiments were performed to test the effects of human IL-1β (PeproTech, Rocky Hill, NJ) on human ankle cartilage. Ankle cartilage explants from two different donors (equilibrated in culture medium post-harvest) were cultured in serum-free low glucose medium (same composition as equilibration medium) and treated with continuous IL-1β doses ranging from 10 pg/ml to 1 ng/ml for 8 days. The experiments also included groups of explants that were treated with 300 ng/ml free IGF-1 at each dose level of IL-1β. Based on the results of these experiments, 100 pg/ml IL-1β was chosen as the dose used for the fusion protein dose response experiments. In these experiments, ankle and knee cartilage explants (equilibrated in culture medium post-harvest) were treated continuously with IL-1β and received single doses of fusion proteins (ranging from 39.2 nM to 2 μM) at the start of the experiments. […]

[1] = single 2 μM dose, 100 pg/ml IL-1β, 10-day experiment (FIG. 15B)

## IGF-1: free recombinant human IGF-1 (PeproTech), pro-anabolic growth factor used as the positive control
40 nM free IGF-1, 100 pg/ml human IL-1β
  rescue of the biosynthesis loss caused by human IL-1β: completely rescue
40 nM free IGF-1, 500 pg/ml and 1000 pg/ml human IL-1β
  rescue of the biosynthesis loss caused by human IL-1β: partial rescue
300 ng/ml IGF-1 + 10 pg/ml human IL-1β, both donors
  biosynthesis rate versus untreated control: surpassed the untreated control biosynthesis
300 ng/ml IGF-1 + 100 pg/ml human IL-1β, both donors
  biosynthesis rate versus untreated control: not statistically significantly different from the untreated control
300 ng/ml IGF-1 + 500 pg/ml or 1 ng/ml human IL-1β, donor
  biosynthesis rate versus untreated control: significantly lower biosynthesis compared to the untreated control
Continuous free IGF-1 300 ng/ml, 100 pg/ml IL-1β, 7-day and 10-day experiments
  rescue of biosynthesis loss: complete rescue
Continuous free IGF-1, human IL-1β 1 ng/ml
  rescue of biosynthesis loss: could not rescue

## (+9GFP)-(EAAAK)3-(IGF-1): fusion protein of +9 GFP and human IGF-1 with rigid (EAAAK)3 linker, SEQ ID NO: 8
Both dose levels (single 500 nM and 1 μM), 100 pg/ml human IL-1β, donor
  rescue of the biosynthesis loss caused by human IL-1β: able to rescue
Single 1 μM dose, 100 pg/ml IL-1β, 7-day experiment (FIG. 15A)
  rescue of the loss of biosynthesis caused by IL-1β: partial rescue
[1]
  rescue of the loss of biosynthesis caused by IL-1β: partially rescued

## (+9GFP)-(GGGGS)4-(IGF-1): fusion protein of +9 GFP and human IGF-1 with flexible (GGGGS)4 linker, SEQ ID NO: 7
Single 1 μM dose, 100 pg/ml IL-1β, 10-day experiment (FIG. 15B)
  rescue of the loss of biosynthesis caused by IL-1β: partially rescued
Single 2 μM dose, 100 pg/ml IL-1β, 7-day experiment (FIG. 15A)
  rescue of the loss of biosynthesis caused by IL-1β: completely rescue
[1]
  rescue of the loss of biosynthesis caused by IL-1β: partially rescued

Source: patent US12653899B2, “Multi-targeted, tunable, sustained delivery of payloads to charged avascular tissues” (Massachusetts Institute of Technology, priority 2019, dated 2026)
